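Abbreviation: GI50, concentration required for 50% inhibition of growth. TGI: concentration producing complete growth inhibition.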
What was measured:
Test in all cases: inhibition of tumour cell growth, NCI panel, 384-well format
786-0 renal = tested on: 786-0 renal
A498 renal = tested on: A498 renal
A549 NSCLC = tested on: A549 NSCLC
ACHN renal = tested on: ACHN renal
BT-549 breast = tested on: BT-549 breast
CAKI-1 renal = tested on: CAKI-1 renal
CCRF-CEM leukemia = tested on: CCRF-CEM leukemia
COLO 205 colon = tested on: COLO 205 colon
DU-145 prostate = tested on: DU-145 prostate
HCC-2998 colon = tested on: HCC-2998 colon
HCT-116 colon = tested on: HCT-116 colon
HCT-15 colon = tested on: HCT-15 colon
HL-60(TB) leukemia = tested on: HL-60(TB) leukemia
HOP-62 NSCLC = tested on: HOP-62 NSCLC
HOP-92 NSCLC = tested on: HOP-92 NSCLC
HT29 colon = tested on: HT29 colon
IGROV1 ovarian = tested on: IGROV1 ovarian
K-562 leukemia = tested on: K-562 leukemia
KM12 colon = tested on: KM12 colon
LOX IMVI melanoma = tested on: LOX IMVI melanoma
M14 melanoma = tested on: M14 melanoma
MALME-3M melanoma = tested on: MALME-3M melanoma
MCF7 breast = tested on: MCF7 breast
MDA-MB-231 breast = tested on: MDA-MB-231 breast
MDA-MB-435 melanoma = tested on: MDA-MB-435 melanoma
MDA-MB-468 breast = tested on: MDA-MB-468 breast
MOLT-4 leukemia = tested on: MOLT-4 leukemia
NCI-H226 lung = tested on: NCI-H226 lung
NCI-H23 lung = tested on: NCI-H23 lung
NCI-H322M lung = tested on: NCI-H322M lung
NCI-H460 NSCLC = tested on: NCI-H460 NSCLC
NCI-H522 lung = tested on: NCI-H522 lung
NCI/ADR-RES ovarian = tested on: NCI/ADR-RES ovarian
OVCAR-3 ovarian = tested on: OVCAR-3 ovarian
OVCAR-4 ovarian = tested on: OVCAR-4 ovarian
OVCAR-5 ovarian = tested on: OVCAR-5 ovarian
OVCAR-8 ovarian = tested on: OVCAR-8 ovarian
PC-3 prostate = tested on: PC-3 prostate
RXF 393 renal = tested on: RXF 393 renal
SF-268 CNS = tested on: SF-268 CNS
SF-295 CNS = tested on: SF-295 CNS
SF-539 CNS = tested on: SF-539 CNS
SK-MEL-2 melanoma = tested on: SK-MEL-2 melanoma
SK-MEL-28 melanoma = tested on: SK-MEL-28 melanoma
SK-MEL-5 melanoma = tested on: SK-MEL-5 melanoma
SK-OV-3 ovarian = tested on: SK-OV-3 ovarian
SN12C renal = tested on: SN12C renal
SNB-19 CNS = tested on: SNB-19 CNS
SR leukemia = tested on: SR leukemia
SW-620 colon = tested on: SW-620 colon
T-47D breast = tested on: T-47D breast
TK-10 renal = tested on: TK-10 renal
U251 glioblastoma = tested on: U251 glioblastoma
UACC-257 melanoma = tested on: UACC-257 melanoma
UACC-62 melanoma = tested on: UACC-62 melanoma
UO-31 renal = tested on: UO-31 renal

**Q.** With `CN(c1ccc(C#N)c(Cl)c1)C1CCC(NC(=O)c2ccc(N3CCN(C4CN(c5ccc6c(c5)C(=O)N(C5CCC(=O)NC5=O)C6=O)C4)CC3)cc2)CC1` (configuration not stated) as the compound, how does the GI50 ([…]-0 renal) read?
**A.** > 100 µM

**Q.** And the TGI (786-0 renal)?
**A.** > 100 µM

**Q.** What about the GI50 (A498 renal) of the same compound?
**A.** > 100 µM

**Q.** And the TGI (A498 renal)?
**A.** > 100 µM

**Q.** And the GI50 (A549 NSCLC)?
**A.** > 100 µM

**Q.** And the TGI (A549 NSCLC)?
**A.** > 100 µM

**Q.** What about the GI50 (ACHN renal) of the same compound?
**A.** > 100 µM

**Q.** What about the TGI (ACHN renal) of the same compound?
**A.** > 100 µM

**Q.** And the GI50 (BT-549 breast)?
**A.** > 100 µM

**Q.** What about the TGI (BT-549 breast) of the same compound?
**A.** > 100 µM

**Q.** And the GI50 (CAKI-1 renal)?
**A.** > 100 µM

**Q.** And the TGI (CAKI-1 renal)?
**A.** > 100 µM

**Q.** What about the GI50 (CCRF-CEM leukemia) of the same compound?
**A.** > 100 µM

**Q.** And the TGI (CCRF-CEM leukemia)?
**A.** > 100 µM

**Q.** And the GI50 (COLO 205 colon)?
**A.** > 100 µM

**Q.** And the TGI (COLO 205 colon)?
**A.** > 100 µM

**Q.** What about the GI50 (DU-145 prostate) of the same compound?
**A.** > 100 µM

**Q.** And the TGI (DU-145 prostate)?
**A.** > 100 µM

**Q.** What about the GI50 (HCC-2998 colon) of the same compound?
**A.** > 100 µM

**Q.** And the TGI (HCC-2998 colon)?
**A.** > 100 µM

**Q.** What about the GI50 (HCT-116 colon) of the same compound?
**A.** > 100 µM

**Q.** And the TGI (HCT-116 colon)?
**A.** > 100 µM

**Q.** And the GI50 (HCT-15 colon)?
**A.** > 100 µM

**Q.** And the TGI (HCT-15 colon)?
**A.** > 100 µM

**Q.** And the GI50 (HL-60(TB) leukemia)?
**A.** > 100 µM

**Q.** What about the TGI (HL-60(TB) leukemia) of the same compound?
**A.** > 100 µM

**Q.** And the GI50 (HOP-62 NSCLC)?
**A.** > 100 µM

**Q.** What about the TGI (HOP-62 NSCLC) of the same compound?
**A.** > 100 µM

**Q.** And the GI50 (HOP-92 NSCLC)?
**A.** > 100 µM

**Q.** And the TGI (HOP-92 NSCLC)?
**A.** > 100 µM

**Q.** What about the GI50 (HT29 colon) of the same compound?
**A.** > 100 µM

**Q.** What about the TGI (HT29 colon) of the same compound?
**A.** > 100 µM

**Q.** And the GI50 (IGROV1 ovarian)?
**A.** > 100 µM

**Q.** And the TGI (IGROV1 ovarian)?
**A.** > 100 µM

**Q.** And the GI50 (K-562 leukemia)?
**A.** > 100 µM

**Q.** What about the TGI (K-562 leukemia) of the same compound?
**A.** > 100 µM

**Q.** What about the GI50 (KM12 colon) of the same compound?
**A.** > 100 µM

**Q.** What about the TGI (KM12 colon) of the same compound?
**A.** > 100 µM

**Q.** And the GI50 (LOX IMVI melanoma)?
**A.** > 100 µM

**Q.** What about the TGI (LOX IMVI melanoma) of the same compound?
**A.** > 100 µM

**Q.** And the GI50 (M14 melanoma)?
**A.** > 100 µM

**Q.** And the TGI (M14 melanoma)?
**A.** > 100 µM

**Q.** And the GI50 (MALME-3M melanoma)?
**A.** > 100 µM

**Q.** What about the TGI (MALME-3M melanoma) of the same compound?
**A.** > 100 µM

**Q.** And the GI50 (MCF7 breast)?
**A.** > 100 µM

**Q.** What about the TGI (MCF7 breast) of the same compound?
**A.** > 100 µM

**Q.** And the GI50 (MDA-MB-231 breast)?
**A.** > 100 µM

**Q.** What about the TGI (MDA-MB-231 breast) of the same compound?
**A.** > 100 µM

**Q.** And the GI50 (MDA-MB-435 melanoma)?
**A.** > 100 µM

**Q.** What about the TGI (MDA-MB-435 melanoma) of the same compound?
**A.** > 100 µM

**Q.** What about the GI50 (MDA-MB-468 breast) of the same compound?
**A.** > 100 µM

**Q.** And the TGI (MDA-MB-468 breast)?
**A.** > 100 µM

**Q.** And the GI50 (MOLT-4 leukemia)?
**A.** > 100 µM

**Q.** What about the TGI (MOLT-4 leukemia) of the same compound?
**A.** > 100 µM

**Q.** What about the GI50 (NCI-H226 lung) of the same compound?
**A.** > 100 µM

**Q.** And the TGI (NCI-H226 lung)?
**A.** > 100 µM

**Q.** And the GI50 (NCI-H23 lung)?
**A.** > 100 µM

**Q.** And the TGI (NCI-H23 lung)?
**A.** > 100 µM

**Q.** And the GI50 (NCI-H322M lung)?
**A.** > 100 µM

**Q.** What about the TGI (NCI-H322M lung) of the same compound?
**A.** > 100 µM

**Q.** And the GI50 (NCI-H460 NSCLC)?
**A.** > 100 µM

**Q.** What about the TGI (NCI-H460 NSCLC) of the same compound?
**A.** > 100 µM

**Q.** And the GI50 (NCI-H522 lung)?
**A.** > 100 µM

**Q.** And the TGI (NCI-H522 lung)?
**A.** > 100 µM

**Q.** What about the GI50 (NCI/ADR-RES ovarian) of the same compound?
**A.** > 100 µM

**Q.** And the TGI (NCI/ADR-RES ovarian)?
**A.** > 100 µM

**Q.** And the GI50 (OVCAR-3 ovarian)?
**A.** > 100 µM

**Q.** What about the TGI (OVCAR-3 ovarian) of the same compound?
**A.** > 100 µM

**Q.** And the GI50 (OVCAR-4 ovarian)?
**A.** > 100 µM

**Q.** And the TGI (OVCAR-4 ovarian)?
**A.** > 100 µM

**Q.** What about the GI50 (OVCAR-5 ovarian) of the same compound?
**A.** > 100 µM

**Q.** What about the TGI (OVCAR-5 ovarian) of the same compound?
**A.** > 100 µM

**Q.** What about the GI50 (OVCAR-8 ovarian) of the same compound?
**A.** > 100 µM

**Q.** And the TGI (OVCAR-8 ovarian)?
**A.** > 100 µM

**Q.** And the GI50 (PC-3 prostate)?
**A.** > 100 µM

**Q.** What about the TGI (PC-3 prostate) of the same compound?
**A.** > 100 µM

**Q.** And the GI50 (RXF 393 renal)?
**A.** > 100 µM

**Q.** What about the TGI (RXF 393 renal) of the same compound?
**A.** > 100 µM

**Q.** And the GI50 (SF-268 CNS)?
**A.** > 100 µM

**Q.** And the TGI (SF-268 CNS)?
**A.** > 100 µM

**Q.** What about the GI50 (SF-295 CNS) of the same compound?
**A.** > 100 µM

**Q.** And the TGI (SF-295 CNS)?
**A.** > 100 µM

**Q.** And the GI50 (SF-539 CNS)?
**A.** > 100 µM

**Q.** What about the TGI (SF-539 CNS) of the same compound?
**A.** > 100 µM

**Q.** And the GI50 (SK-MEL-2 melanoma)?
**A.** > 100 µM

**Q.** What about the TGI (SK-MEL-2 melanoma) of the same compound?
**A.** > 100 µM

**Q.** And the GI50 (SK-MEL-28 melanoma)?
**A.** > 100 µM

**Q.** And the TGI (SK-MEL-28 melanoma)?
**A.** > 100 µM

**Q.** And the GI50 (SK-MEL-5 melanoma)?
**A.** > 100 µM

**Q.** And the TGI (SK-MEL-5 melanoma)?
**A.** > 100 µM

**Q.** What about the GI50 (SK-OV-3 ovarian) of the same compound?
**A.** > 100 µM

**Q.** And the TGI (SK-OV-3 ovarian)?
**A.** > 100 µM

**Q.** And the GI50 (SN12C renal)?
**A.** > 100 µM

**Q.** What about the TGI (SN12C renal) of the same compound?
**A.** > 100 µM

**Q.** What about the GI50 (SNB-19 CNS) of the same compound?
**A.** > 100 µM

**Q.** And the TGI (SNB-19 CNS)?
**A.** > 100 µM

**Q.** What about the GI50 (SR leukemia) of the same compound?
**A.** > 100 µM

**Q.** And the TGI (SR leukemia)?
**A.** > 100 µM

**Q.** And the GI50 (SW-620 colon)?
**A.** > 100 µM

**Q.** And the TGI (SW-620 colon)?
**A.** > 100 µM

**Q.** What about the GI50 (T-47D breast) of the same compound?
**A.** > 100 µM

**Q.** And the TGI (T-47D breast)?
**A.** > 100 µM

**Q.** And the GI50 (TK-10 renal)?
**A.** > 100 µM

**Q.** What about the TGI (TK-10 renal) of the same compound?
**A.** > 100 µM

**Q.** And the GI50 (U251 glioblastoma)?
**A.** > 100 µM

**Q.** What about the TGI (U251 glioblastoma) of the same compound?
**A.** > 100 µM

**Q.** And the GI50 (UACC-257 melanoma)?
**A.** > 100 µM

**Q.** And the TGI (UACC-257 melanoma)?
**A.** > 100 µM

**Q.** And the GI50 (UACC-62 melanoma)?
**A.** > 100 µM

**Q.** And the TGI (UACC-62 melanoma)?
**A.** > 100 µM

**Q.** And the GI50 (UO-31 renal)?
**A.** > 100 µM

**Q.** And the TGI (UO-31 renal)?
**A.** > 100 µM

From PubChem BioAssay (NCI)
